Data published in ChEMBL document CHEMBL4507301 (2021).

Legend:
[1] = target: T1, Alpha-2C adrenergic receptor (Homo sapiens) (UniProt P18825); details: Compound concentration 10.0 uM
T1 sequence (whole entry): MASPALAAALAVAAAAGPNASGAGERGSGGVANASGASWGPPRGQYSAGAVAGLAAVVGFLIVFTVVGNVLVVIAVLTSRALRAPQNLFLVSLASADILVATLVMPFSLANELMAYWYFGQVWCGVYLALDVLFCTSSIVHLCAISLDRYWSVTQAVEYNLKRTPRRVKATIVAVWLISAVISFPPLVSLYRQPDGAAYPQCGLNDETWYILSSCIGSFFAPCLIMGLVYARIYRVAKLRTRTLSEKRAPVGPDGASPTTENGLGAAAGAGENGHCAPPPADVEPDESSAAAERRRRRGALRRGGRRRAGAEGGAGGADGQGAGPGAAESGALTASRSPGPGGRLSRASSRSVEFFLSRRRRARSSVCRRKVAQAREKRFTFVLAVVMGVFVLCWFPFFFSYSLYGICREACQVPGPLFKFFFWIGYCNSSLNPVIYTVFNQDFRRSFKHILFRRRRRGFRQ

[2] = target: D(4) dopamine receptor (Homo sapiens) (UniProt P21917); details: Compound concentration 10.0 uM
[3] = target: Focal adhesion kinase 1 (Homo sapiens) (UniProt Q05397); details: Compound concentration 1000.0 nM
[4] = target: Mitogen-activated protein kinase kinase kinase 15 (Homo sapiens) (UniProt Q6ZN16); details: Compound concentration 1000.0 nM
[5] = target: Ephrin type-A receptor 6 (Homo sapiens) (UniProt Q9UF33); details: Compound concentration 1000.0 nM
[6] = target: Calcium/calmodulin-dependent protein kinase type II subunit beta (Homo sapiens) (UniProt Q13554); details: Compound concentration 1000.0 nM
[7] = target: Dual specificity mitogen-activated protein kinase kinase 1 (Homo sapiens) (UniProt Q02750); details: Compound concentration 1000.0 nM
[8] = target: Ribosomal protein S6 kinase alpha-5 (Homo sapiens) (UniProt O75582); details: Compound concentration 1000.0 nM
[9] = target: Tyrosine-protein kinase receptor UFO (Homo sapiens) (UniProt P30530); details: Compound concentration 1000.0 nM
[10] = target: Dual specificity protein kinase CLK3 (Homo sapiens) (UniProt P49761); details: Compound concentration 1000.0 nM
[11] = target: Cyclin-dependent kinase 3 (Homo sapiens) (UniProt Q00526); details: Compound concentration 1000.0 nM
[12] = target: SRSF protein kinase 2 (Homo sapiens) (UniProt P78362); details: Compound concentration 1000.0 nM
[13] = target: Phosphatidylinositol 4,5-bisphosphate 3-kinase catalytic subunit delta isoform (Homo sapiens) (UniProt O00329); details: Compound concentration 1000.0 nM
[14] = target: Serine/threonine-protein kinase PAK 6 (Homo sapiens) (UniProt Q9NQU5); details: Compound concentration 1000.0 nM
[15] = target: Phosphatidylinositol 4,5-bisphosphate 3-kinase catalytic subunit alpha isoform (Homo sapiens) (UniProt P42336); details: Compound concentration 1000.0 nM
[16] = target: Serine/threonine-protein kinase TAO1 (Homo sapiens) (UniProt Q7L7X3); details: Compound concentration 1000.0 nM
[17] = target: Serine/threonine-protein kinase WNK1 (Homo sapiens) (UniProt Q9H4A3); details: Compound concentration 1000.0 nM
[18] = target: Activated CDC42 kinase 1 (Homo sapiens) (UniProt Q07912); details: Compound concentration 1000.0 nM
[19] = target: Dual specificity mitogen-activated protein kinase kinase 3 (Homo sapiens) (UniProt P46734); details: Compound concentration 1000.0 nM
[20] = target: Serine/threonine-protein kinase 32A (Homo sapiens) (UniProt Q8WU08); details: Compound concentration 1000.0 nM
[21] = target: Tyrosine-protein kinase JAK3 (Homo sapiens) (UniProt P52333); details: Compound concentration 1000.0 nM
[22] = target: Serine/threonine-protein kinase mTOR (Homo sapiens) (UniProt P42345); details: Compound concentration 1000.0 nM
[23] = target: Rhodopsin kinase GRK7 (Homo sapiens) (UniProt Q8WTQ7); details: Compound concentration 1000.0 nM
[24] = target: Tyrosine-protein kinase ABL1 (Homo sapiens) (UniProt P00519); details: Compound concentration 1000.0 nM
[25] = test system: Phosphatidylinositol 4,5-bisphosphate 3-kinase catalytic subunit alpha isoform (Homo sapiens), P42336 [E545A]; details: Compound concentration 1000.0 nM
[26] = test system: Epidermal growth factor receptor (Homo sapiens), P00533 [L858R,T790M]; details: Compound concentration 1000.0 nM
[27] = target: Tyrosine-protein kinase HCK (Homo sapiens) (UniProt P08631); details: Compound concentration 1000.0 nM
[28] = test system: Tyrosine-protein kinase ABL1 (Homo sapiens), P00519 [F317L]; details: Compound concentration 1000.0 nM
[29] = test system: Tyrosine-protein kinase ABL1 (Homo sapiens), P00519 [M351T]; details: Compound concentration 1000.0 nM
[30] = target: Beta-2 adrenergic receptor (Homo sapiens) (UniProt P07550); details: Compound concentration 10.0 uM
[31] = target: Ribosomal protein S6 kinase alpha-1 (Homo sapiens) (UniProt Q15418); details: Compound concentration 1000.0 nM
[32] = target: Fibroblast growth factor receptor 2 (Homo sapiens) (UniProt P21802); details: Compound concentration 1000.0 nM
[33] = target: Cyclin-dependent kinase 7 (Homo sapiens) (UniProt P50613); details: Compound concentration 1000.0 nM
[34] = target: Mitogen-activated protein kinase 7 (Homo sapiens) (UniProt Q13164); details: Compound concentration 1000.0 nM
[35] = target: Serine/threonine-protein kinase PLK3 (Homo sapiens) (UniProt Q9H4B4); details: Compound concentration 1000.0 nM
[36] = test system: Phosphatidylinositol 4,5-bisphosphate 3-kinase catalytic subunit alpha isoform (Homo sapiens), P42336 [Q546K]; details: Compound concentration 1000.0 nM
[37] = target: Histamine H1 receptor (Homo sapiens) (UniProt P35367); details: Compound concentration 10.0 uM
[38] = test system: Epidermal growth factor receptor (Homo sapiens), P00533 [L858R]; details: Compound concentration 1000.0 nM
[39] = target: Serine/threonine-protein kinase tousled-like 2 (Homo sapiens) (UniProt Q86UE8); details: Compound concentration 1000.0 nM
Chain of Serine/threonine-protein kinase tousled-like 2 (Homo sapiens) (Q86UE8 whole entry, looked up): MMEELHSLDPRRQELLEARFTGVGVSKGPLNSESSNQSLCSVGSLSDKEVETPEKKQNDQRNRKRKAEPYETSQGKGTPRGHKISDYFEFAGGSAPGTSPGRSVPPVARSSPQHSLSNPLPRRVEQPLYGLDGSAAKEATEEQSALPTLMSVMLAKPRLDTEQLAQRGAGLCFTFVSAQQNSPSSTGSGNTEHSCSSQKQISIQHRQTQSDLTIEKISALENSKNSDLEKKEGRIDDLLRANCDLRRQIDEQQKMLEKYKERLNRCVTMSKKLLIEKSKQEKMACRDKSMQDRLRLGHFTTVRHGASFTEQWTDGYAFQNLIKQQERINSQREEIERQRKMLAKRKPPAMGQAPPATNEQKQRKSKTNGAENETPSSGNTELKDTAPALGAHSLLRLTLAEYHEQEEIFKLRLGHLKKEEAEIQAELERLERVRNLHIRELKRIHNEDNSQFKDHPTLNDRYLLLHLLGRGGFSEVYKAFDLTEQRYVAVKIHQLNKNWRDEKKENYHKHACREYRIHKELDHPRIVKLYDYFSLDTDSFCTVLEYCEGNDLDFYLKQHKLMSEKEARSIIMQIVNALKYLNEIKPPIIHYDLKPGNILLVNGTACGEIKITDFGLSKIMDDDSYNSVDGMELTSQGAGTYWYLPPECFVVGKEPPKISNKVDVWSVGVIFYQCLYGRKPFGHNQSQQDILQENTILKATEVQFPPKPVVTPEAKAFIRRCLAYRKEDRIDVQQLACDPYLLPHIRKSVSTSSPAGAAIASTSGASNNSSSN

Chain of Cyclin-dependent kinase 7 (Homo sapiens) (P50613 whole entry): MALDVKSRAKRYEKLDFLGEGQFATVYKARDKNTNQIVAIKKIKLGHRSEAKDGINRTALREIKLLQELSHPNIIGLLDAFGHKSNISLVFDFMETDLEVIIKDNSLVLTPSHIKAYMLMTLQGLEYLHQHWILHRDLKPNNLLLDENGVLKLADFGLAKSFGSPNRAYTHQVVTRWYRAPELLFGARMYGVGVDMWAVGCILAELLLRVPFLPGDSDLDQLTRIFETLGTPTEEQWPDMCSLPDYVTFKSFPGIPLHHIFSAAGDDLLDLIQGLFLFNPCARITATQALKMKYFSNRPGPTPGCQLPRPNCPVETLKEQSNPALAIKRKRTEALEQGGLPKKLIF
Chain of Serine/threonine-protein kinase WNK1 (Homo sapiens) (Q9H4A3 whole entry, looked up): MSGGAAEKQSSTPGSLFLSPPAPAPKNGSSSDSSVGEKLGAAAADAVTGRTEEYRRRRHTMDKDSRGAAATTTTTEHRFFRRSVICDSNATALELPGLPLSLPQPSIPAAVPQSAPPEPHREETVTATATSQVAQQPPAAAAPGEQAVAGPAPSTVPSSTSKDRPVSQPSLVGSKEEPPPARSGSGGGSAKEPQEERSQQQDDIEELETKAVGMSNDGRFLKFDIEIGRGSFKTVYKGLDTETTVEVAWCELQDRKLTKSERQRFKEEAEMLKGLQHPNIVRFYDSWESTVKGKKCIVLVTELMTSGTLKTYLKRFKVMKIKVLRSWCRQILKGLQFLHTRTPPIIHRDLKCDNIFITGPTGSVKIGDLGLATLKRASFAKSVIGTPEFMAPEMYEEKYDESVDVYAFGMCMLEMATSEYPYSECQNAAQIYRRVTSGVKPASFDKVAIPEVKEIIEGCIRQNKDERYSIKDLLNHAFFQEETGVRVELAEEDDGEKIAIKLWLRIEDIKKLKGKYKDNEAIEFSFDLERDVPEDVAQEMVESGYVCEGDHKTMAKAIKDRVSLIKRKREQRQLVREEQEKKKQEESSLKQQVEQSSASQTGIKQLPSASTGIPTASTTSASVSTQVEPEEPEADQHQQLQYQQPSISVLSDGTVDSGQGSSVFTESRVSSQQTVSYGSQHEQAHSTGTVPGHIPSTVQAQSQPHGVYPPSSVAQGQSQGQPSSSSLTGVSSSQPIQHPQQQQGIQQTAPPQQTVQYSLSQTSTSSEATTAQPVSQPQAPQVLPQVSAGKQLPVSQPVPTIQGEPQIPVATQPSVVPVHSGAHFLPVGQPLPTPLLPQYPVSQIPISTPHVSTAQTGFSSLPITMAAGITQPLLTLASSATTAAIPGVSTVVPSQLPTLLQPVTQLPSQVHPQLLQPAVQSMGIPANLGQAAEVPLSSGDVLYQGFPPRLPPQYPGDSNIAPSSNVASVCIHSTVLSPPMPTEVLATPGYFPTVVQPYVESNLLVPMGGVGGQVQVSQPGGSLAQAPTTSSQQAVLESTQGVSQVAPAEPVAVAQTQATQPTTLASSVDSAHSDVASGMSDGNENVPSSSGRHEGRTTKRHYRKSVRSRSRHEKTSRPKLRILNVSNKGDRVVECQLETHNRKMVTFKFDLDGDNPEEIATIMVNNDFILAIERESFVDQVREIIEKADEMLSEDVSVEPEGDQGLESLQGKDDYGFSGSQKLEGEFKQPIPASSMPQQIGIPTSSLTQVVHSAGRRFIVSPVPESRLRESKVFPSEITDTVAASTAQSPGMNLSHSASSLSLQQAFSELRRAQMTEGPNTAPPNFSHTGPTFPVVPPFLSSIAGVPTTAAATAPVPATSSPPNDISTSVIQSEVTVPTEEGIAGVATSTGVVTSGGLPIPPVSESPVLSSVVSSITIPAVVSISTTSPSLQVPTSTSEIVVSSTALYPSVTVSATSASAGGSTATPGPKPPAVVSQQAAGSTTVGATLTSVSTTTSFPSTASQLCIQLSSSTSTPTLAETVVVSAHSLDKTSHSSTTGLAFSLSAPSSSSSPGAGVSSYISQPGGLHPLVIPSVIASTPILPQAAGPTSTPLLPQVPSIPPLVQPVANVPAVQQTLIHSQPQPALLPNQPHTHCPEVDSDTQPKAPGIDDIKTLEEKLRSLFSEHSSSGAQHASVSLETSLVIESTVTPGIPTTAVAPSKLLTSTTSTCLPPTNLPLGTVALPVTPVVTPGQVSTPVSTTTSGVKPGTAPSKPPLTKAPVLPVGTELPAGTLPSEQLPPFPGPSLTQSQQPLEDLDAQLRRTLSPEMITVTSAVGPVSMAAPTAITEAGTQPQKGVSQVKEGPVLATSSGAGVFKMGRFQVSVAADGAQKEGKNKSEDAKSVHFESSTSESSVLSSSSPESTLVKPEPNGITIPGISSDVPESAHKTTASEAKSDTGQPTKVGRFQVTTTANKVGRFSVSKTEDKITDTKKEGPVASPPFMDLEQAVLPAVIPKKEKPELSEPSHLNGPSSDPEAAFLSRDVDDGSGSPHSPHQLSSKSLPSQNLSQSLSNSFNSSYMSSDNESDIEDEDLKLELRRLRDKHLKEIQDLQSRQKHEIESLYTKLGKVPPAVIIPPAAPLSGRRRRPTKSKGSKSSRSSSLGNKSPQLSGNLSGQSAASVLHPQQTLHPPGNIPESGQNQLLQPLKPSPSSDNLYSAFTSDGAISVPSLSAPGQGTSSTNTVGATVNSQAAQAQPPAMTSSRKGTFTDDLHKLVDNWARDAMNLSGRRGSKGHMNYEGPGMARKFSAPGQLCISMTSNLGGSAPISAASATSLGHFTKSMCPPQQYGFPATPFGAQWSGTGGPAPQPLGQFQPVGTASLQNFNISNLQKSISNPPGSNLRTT
Chain of SRSF protein kinase 2 (Homo sapiens) (P78362 whole entry, looked up, canonical isoform): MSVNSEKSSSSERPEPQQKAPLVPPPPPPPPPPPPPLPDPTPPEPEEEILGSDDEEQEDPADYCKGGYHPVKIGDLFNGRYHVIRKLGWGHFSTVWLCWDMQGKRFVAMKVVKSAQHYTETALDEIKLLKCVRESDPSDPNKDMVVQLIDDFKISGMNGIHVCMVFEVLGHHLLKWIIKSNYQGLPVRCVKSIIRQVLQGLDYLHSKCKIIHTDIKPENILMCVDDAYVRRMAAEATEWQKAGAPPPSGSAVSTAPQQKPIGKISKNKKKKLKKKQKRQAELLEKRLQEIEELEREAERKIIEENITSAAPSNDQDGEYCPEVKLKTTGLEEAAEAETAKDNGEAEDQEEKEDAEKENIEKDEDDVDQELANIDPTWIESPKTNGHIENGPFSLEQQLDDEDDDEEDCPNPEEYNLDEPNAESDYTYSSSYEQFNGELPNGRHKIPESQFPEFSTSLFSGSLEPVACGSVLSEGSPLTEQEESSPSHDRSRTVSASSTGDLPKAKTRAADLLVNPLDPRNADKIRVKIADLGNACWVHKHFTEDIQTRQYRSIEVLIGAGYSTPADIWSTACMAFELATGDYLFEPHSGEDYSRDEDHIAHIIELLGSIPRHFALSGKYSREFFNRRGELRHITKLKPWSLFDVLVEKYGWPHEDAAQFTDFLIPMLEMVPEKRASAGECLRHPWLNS
Chain of Mitogen-activated protein kinase 7 (Homo sapiens) (Q13164 2-816 limits assumed): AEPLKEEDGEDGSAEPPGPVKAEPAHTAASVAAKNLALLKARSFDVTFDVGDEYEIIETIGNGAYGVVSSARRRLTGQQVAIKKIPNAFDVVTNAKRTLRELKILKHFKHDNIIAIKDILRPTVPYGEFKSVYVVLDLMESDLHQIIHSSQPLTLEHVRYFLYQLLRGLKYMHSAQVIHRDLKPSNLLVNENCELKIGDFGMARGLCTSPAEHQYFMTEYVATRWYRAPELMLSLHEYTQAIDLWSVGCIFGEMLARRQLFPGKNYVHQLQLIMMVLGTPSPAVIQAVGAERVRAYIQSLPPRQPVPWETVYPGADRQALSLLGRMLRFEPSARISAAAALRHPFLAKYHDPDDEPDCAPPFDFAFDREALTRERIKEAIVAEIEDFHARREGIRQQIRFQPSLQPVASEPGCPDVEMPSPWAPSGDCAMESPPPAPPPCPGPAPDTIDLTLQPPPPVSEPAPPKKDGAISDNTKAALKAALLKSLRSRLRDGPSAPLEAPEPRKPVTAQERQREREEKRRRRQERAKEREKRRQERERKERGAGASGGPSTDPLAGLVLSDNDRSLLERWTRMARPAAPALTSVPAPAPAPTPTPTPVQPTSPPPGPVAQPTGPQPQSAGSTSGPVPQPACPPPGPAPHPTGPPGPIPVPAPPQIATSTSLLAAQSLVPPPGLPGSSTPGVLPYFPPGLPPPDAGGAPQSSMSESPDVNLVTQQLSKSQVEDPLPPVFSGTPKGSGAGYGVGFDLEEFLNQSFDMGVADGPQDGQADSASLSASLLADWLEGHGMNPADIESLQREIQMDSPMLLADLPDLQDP

Row | Structure (SMILES) | inhibition [1] | inhibition [2] | residual activity [3] | residual activity [4] | residual activity [5] | residual activity [6] | residual activity [7] | residual activity [8] | residual activity [9] | residual activity [10] | residual activity [11] | residual activity [12] | residual activity [13] | residual activity [14] | residual activity [15] | residual activity [16] | residual activity [17] | residual activity [18] | residual activity [19] | residual activity [20] | further results
1 | C[C@H](c1cccc(C#N)c1)n1cc(Cl)cc(C(N)=O)c1=N [(R)-9s] | 42.7% | 6.56% | 100% | 81% | 86% | 100% | 75% | 68% | 100% | 100% | 100% | 100% | 99% | 100% | 92% | 90% | 89% | 83% | 73% | 100% | residual activity [21]: 94%; residual activity [22]: 91%; residual activity [23]: 85%; residual activity [24]: 100%; residual activity [25]: 100%; residual activity [26]: 89%; residual activity [27]: 98%; residual activity [28]: 83%; residual activity [29]: 100%; inhibition [30]: 18.6%; residual activity [31]: 97%; residual activity [32]: 43%; residual activity [33]: 78%; residual activity [34]: 88%; residual activity [35]: 83%; residual activity [36]: 100%; inhibition [37]: -6.96%; residual activity [38]: 86%; residual activity [39]: 100%
2 | C[C@@H](c1cccc(C#N)c1)n1cc(Cl)cc(C(N)=O)c1=N [(S)-9s] | 3.93% | 10.1% | 100% | 98% | 91% | 100% | 80% | 74% | 100% | 100% | 100% | 100% | 100% | 86% | 100% | 89% | 97% | 95% | 67% | 100% | residual activity [21]: 100%; residual activity [22]: 96%; residual activity [23]: 82%; residual activity [24]: 82%; residual activity [25]: 98%; residual activity [26]: 86%; residual activity [27]: 91%; residual activity [28]: 0%; residual activity [29]: 0%; inhibition [30]: 13.8%; residual activity [31]: 100%; residual activity [32]: 67%; residual activity [33]: 81%; residual activity [34]: 88%; residual activity [35]: 89%; residual activity [36]: 100%; inhibition [37]: -9.05%; residual activity [38]: 100%; residual activity [39]: 100%
